Results: patent US20020165188A1, “Methods for inhibition of tumorigenic properties of melanoma cells” (priority 1999, published 2002)
“Also recorded” adds a separate entry of the source. Values belong to the molecule of their own block, whether it stands above or below them.

Experiments:
Desmoglein 1 = Desmoglein 1 expression in melanocytic cells under HGF stimulation (immunoblot); format: cell-based, human
Experimental: (§1) Optimal viral concentrations for infection were determined as the amounts of virus required to yield the desired levels of gene expression without apparent alteration in cellular phenotype or toxicity. Subconfluent melanocytes and melanoma cells were infected with adenoviruses for 2-4 hours at 37° C. in protein-free W489 medium. Viral suspension was then replaced with culture medium. Because dominant negative Desmoglein-3 vector AxCALNLDsg3ΔEC and E-cadherin vector AxCALNLEcadΔEC were made using the Cre-loxP system (Hanakawa et al., 2000), AxCANCre was co-infected with AxCALNLDsg3ΔEC or AxCALNLEcacLΔEC at a ratio of 1:1, respectively. Cells were allowed to recover for at least 24 hours before assay.
(§2) For immunoblotting, cells were washed with PBS and harvested in RIPA buffer. Total protein concentrations were measured using the bicinchoninic acid (BCA) assay (Pierce Chemical Co. Rockford, Ill.). Samples were loaded at 15 μg/lane and separated on 8% SDS polyacrylamide gels and transferred to polyvinylidene difluoride (PVDF) membranes and probed with specific primary antibodies. To detect the signal, peroxidase-conjugated secondary antibody was added, followed by exposure using enhanced chemiluminescence (ECL) (Amersham, Arlington Heights, Ill.). Some of the immunoblots were quantified using NIH Image (version 1.61).

E-cadherin = E-cadherin expression in melanocytic cells under HGF stimulation (immunoblot); format: cell-based, human
Experimental: as §1, §2

[1] = test system: melanocytes or melanoma cells; experiment: Growth of melanocytes and melanoma cells after HGF treatment; format: cell-based, human; conditions: HGF treatment alone
c-Met = c-Met phosphorylation by immunoprecipitation and anti-phosphotyrosine blot; format: cell-based, human
Experimental: To investigate the status of c-Met phosphorylation, subconfluent melanoma cells were infected with LacZ or Ad.CMV.rhHGF (20 pfu/cell) and cultured for 48 hours. In neutralizing antibody-treated group, HGF neutralizing antibody (final concentration 10 ug/ml) was added to serum-free medium 24 hours before lysis. Cells were washed with cold PBS containing 1 mM Na3VO4, and rapidly scraped into 200 μl PBS containing 1% Triton X-100, 1% NP4O, 1 mM Na3VO4, 1 mM phenylmethyl sulfonyl fluoride (PMSF), and protease inhibitors (1 μg/ml leupeptin, aprotinin and pepstatin). After incubation on ice for 15 minutes, the extracts were separated by centrifugation at 13,000× g for 10 minutes. The supernatants were used for immunoprecipitation using an anti-c-Met antibody (5 μg) for 1 hour at 4° C. with shaking. Protein A-G sepharose CL-4B beads (Pharmacia Biotech, Uppsala, Sweden) were then added and incubated for 12 hours. Samples were washed four times with lysis buffer, boiled in Laemmli buffer containing (3-mercaptoethanol, and subjected to electrophoresis on an 8% SDS-polyacrylamide gel. Separated proteins were transferred onto PVDF membrane and detected by anti-phosphotyrosine primary antibody (PY2O) and peroxidase-conjugated secondary antibody. Signals were detected using ECL.

IGF-R1 [2] = molecular target: T1, IGF-R1 (human, UniProt P08069 31-1367, limits assumed); experiment: co-immunoprecipitation with anti-Plakoglobin antibody, blot probed with anti-IGF-R1 antibody
T1 construct: Specificity control of the co-immunoprecipitation; also called IF-R1
Excerpt: (§3) Desmoglein 1, E-cadherin, c-Met and Plakoglobin can be co-immunoprecipitated from melanocytic cells. […] To test the possibility that physical interactions underlie the crosstalk between HGF/c-Met signaling and adhesion receptor regulation, the complex formation was investigated by immunoprecipitation analyses. Desmoglein 1, Plakoglobin, c-Met and E-cadherin were detected in the complexes pulled down by either anti-Desmoglein 1 antibody or anti-Plakoglobin antibody in keratinocytes and melanocytes. WM278 expresses no E-cadherin, but the other components were also found to form complexes. The specificity of the interaction was confirmed by probing the same blots with anti-IF-R1 antibody. IF-R1 was not detected in the immunoprecipitants but IF-R1 was detectable in whole cell extract.
(§4) To investigate c-Met Desmoglein lE-cadherin complexes, cells cultured in their optimal media were lysed in 10 mM Tris-HCl (pH7.4), 1% NP-40, 1% Triton X-100, 2mM CaCl₂, 150 mM NaCl, 1 mM PMSF and protease inhibitors (1 μg/ml leupeptin, aprotinin and pepstatin). The extracts were immunoprecipitated using either anti-Desmoglein 1 or anti-Plakoglobin antibody in the same condition described above. Immunoprecipitants were separated on gels, transferred onto PVDF membrane and probed with anti-Desmoglein 1, -Plakoglobin, -c-Met and -E-cadherin antibodies.

IGF-R1 [3] = molecular target: T1, IGF-R1; experiment: co-immunoprecipitation with anti-Desmoglein 1 antibody, blot probed with anti-IGF-R1 antibody
Excerpt: as §3, §4

[4] = Ad.CMV.rhHGF transduced melanocytes, antibody 10 μg/ml, wortmannin 30 μM, PD98059 10 μM and 50 μM
[5] = autocrine activation by HGF-expressing adenovirus, melanocytes, WM164, WM35
[6] = continuous/prolonged HGF stimulation (three days; Ad.CMV.rhHGF 20 pfu/cell), melanocytes, WM164 and WM35
[7] = melanocytes, one pulse of recombinant protein 50 ng/ml, five and twelve hour intervals

T1 sequence (P08069 31-1367 limits assumed): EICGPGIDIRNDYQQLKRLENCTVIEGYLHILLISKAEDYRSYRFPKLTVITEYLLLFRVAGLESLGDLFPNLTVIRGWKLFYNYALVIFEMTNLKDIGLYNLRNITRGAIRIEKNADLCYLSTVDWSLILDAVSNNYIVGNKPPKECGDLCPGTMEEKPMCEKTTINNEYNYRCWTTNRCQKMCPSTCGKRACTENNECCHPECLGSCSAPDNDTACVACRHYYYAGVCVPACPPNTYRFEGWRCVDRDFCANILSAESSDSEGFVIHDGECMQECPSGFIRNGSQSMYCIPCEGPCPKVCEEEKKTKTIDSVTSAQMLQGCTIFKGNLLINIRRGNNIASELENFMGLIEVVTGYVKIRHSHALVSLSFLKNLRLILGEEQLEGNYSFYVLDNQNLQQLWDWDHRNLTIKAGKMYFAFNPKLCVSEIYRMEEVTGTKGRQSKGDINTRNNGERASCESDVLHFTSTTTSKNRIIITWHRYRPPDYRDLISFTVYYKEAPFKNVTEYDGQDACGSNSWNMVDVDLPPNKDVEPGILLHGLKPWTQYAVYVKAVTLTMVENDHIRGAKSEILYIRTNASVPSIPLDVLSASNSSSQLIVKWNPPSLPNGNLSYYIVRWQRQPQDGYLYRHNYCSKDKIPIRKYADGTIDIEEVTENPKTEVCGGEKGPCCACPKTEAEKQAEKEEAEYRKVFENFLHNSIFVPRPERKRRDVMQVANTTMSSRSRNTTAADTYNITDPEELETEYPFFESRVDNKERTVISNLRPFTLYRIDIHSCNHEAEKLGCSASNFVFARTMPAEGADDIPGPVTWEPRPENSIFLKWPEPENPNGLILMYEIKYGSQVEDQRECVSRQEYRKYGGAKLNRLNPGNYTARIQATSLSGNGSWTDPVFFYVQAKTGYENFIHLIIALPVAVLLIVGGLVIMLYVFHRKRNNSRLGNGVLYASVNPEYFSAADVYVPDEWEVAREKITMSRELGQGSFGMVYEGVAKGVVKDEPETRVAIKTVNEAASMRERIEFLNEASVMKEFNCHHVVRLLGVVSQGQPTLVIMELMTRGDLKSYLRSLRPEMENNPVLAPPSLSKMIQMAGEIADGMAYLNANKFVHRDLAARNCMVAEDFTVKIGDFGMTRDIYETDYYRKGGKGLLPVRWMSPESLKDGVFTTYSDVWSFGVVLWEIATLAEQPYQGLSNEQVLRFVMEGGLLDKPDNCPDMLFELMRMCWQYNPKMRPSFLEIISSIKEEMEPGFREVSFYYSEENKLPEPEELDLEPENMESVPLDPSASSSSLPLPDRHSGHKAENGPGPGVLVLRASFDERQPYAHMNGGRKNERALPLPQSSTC

Molecule: COc1cccc(-c2cc(=O)c3ccccc3o2)c1N [PD98059, reference compound]
blocking of HGF-induced downregulation of Desmoglein 1 (Desmoglein 1; [4]): less effective | blocking of downregulation of Desmoglein 1 (summary statement) (Desmoglein 1; [5]): partially blocked | blocking of HGF-induced downregulation of E-cadherin (E-cadherin; [4]): less effective | blocking of downregulation of E-cadherin (summary statement) (E-cadherin; [5]): partially blocked

Molecule: HGF: multi-functional cytokine acting through tyrosine kinase receptor c-met; recombinant human HGF from R&D Systems
expression levels of Desmoglein 1 (Desmoglein 1; [6]): greatly reduced | Desmoglein expression after pulse HGF (Desmoglein 1; [7]): did not alter; also recorded: did not cause downregulation | expression levels of E-cadherin (E-cadherin; [6]): greatly reduced | E-cadherin expression after pulse HGF (E-cadherin; [7]): did not alter; also recorded: did not cause downregulation | growth stimulation [1]: No significant growth stimulation | levels of c-Met (c-Met; after HGF treatment): did not change | tyrosine-phosphorylated c-Met (c-Met; melanocytes and melanoma cells treated with additional HGF): dramatic increase

binding result (IGF-R1 [2]): no binding
B1: Plakoglobin (other, human, UniProt P14923 1-745, looked up)
chain: MEVMNLMEQPIKVTEWQQTYTYDSGIHSGANTCVPSVSSKGIMEEDEACGRQYTLKKTTTYTQGVPPSQGDLEYQMSTTARAKRVREAMCPGVSGEDSSLLLATQVEGQATNLQRLAEPSQLLKSAIVHLINYQDDAELATRALPELTKLLNDEDPVVVTKAAMIVNQLSKKEASRRALMGSPQLVAAVVRTMQNTSDLDTARCTTSILHNLSHHREGLLAIFKSGGIPALVRMLSSPVESVLFYAITTLHNLLLYQEGAKMAVRLADGLQKMVPLLNKNNPKFLAITTDCLQLLAYGNQESKLIILANGGPQALVQIMRNYSYEKLLWTTSRVLKVLSVCPSNKPAIVEAGGMQALGKHLTSNSPRLVQNCLWTLRNLSDVATKQEGLESVLKILVNQLSVDDVNVLTCATGTLSNLTCNNSKNKTLVTQNSGVEALIHAILRAGDKDDITEPAVCALRHLTSRHPEAEMAQNSVRLNYGIPAIVKLLNQPNQWPLVKATIGLIRNLALCPANHAPLQEAAVIPRLVQLLVKAHQDAQRHVAAGTQQPYTDGVRMEEIVEGCTGALHILARDPMNRMEIFRLNTIPLFVQLLYSSVENIQRVAAGVLCELAQDKEAADAIDAEGASAPLMELLHSRNEGTATYAAAVLFRISEDKNPDYRKRVSVELTNSLFKHDPAAWEAAQSMIPINEPYGDDMDATYRPMYSSDVPLDPLEMHMDMDGDYPIDTYSDGLRPPYPTADHMLA
notes: Endogenous protein immunoprecipitated from detergent lysates of cultured human cells; also called gamma-catenin; y-catenin

binding result (IGF-R1 [3]): no binding
B2: Desmoglein 1 (other, human, UniProt Q02413 50-1049, looked up)
chain: EWIKFAAACREGEDNSKRNPIAKIHSDCAANQQVTYRISGVGIDQPPYGIFVINQKTGEINITSIVDREVTPFFIIYCRALNSMGQDLERPLELRVRVLDINDNPPVFSMATFAGQIEENSNANTLVMILNATDADEPNNLNSKIAFKIIRQEPSDSPMFIINRNTGEIRTMNNFLDREQYGQYALAVRGSDRDGGADGMSAECECNIKILDVNDNIPYMEQSSYTIEIQENTLNSNLLEIRVIDLDEEFSANWMAVIFFISGNEGNWFEIEMNERTNVGILKVVKPLDYEAMQSLQLSIGVRNKAEFHHSIMSQYKLKASAISVTVLNVIEGPVFRPGSKTYVVTGNMGSNDKVGDFVATDLDTGRPSTTVRYVMGNNPADLLAVDSRTGKLTLKNKVTKEQYNMLGGKYQGTILSIDDNLQRTCTGTININIQSFGNDDRTNTEPNTKITTNTGRQESTSSTNYDTSTTSTDSSQVYSSEPGNGAKDLLSDNVHFGPAGIGLLIMGFLVLGLVPFLMICCDCGGAPRSAAGFEPVPECSDGAIHSWAVEGPQPEPRDITTVIPQIPPDNANIIECIDNSGVYTNEYGGREMQDLGGGERMTGFELTEGVKTSGMPEICQEYSGTLRRNSMRECREGGLNMNFMESYFCQKAYAYADEDEGRPSNDCLLIYDIEGVGSPAGSVGCCSFIGEDLDDSFLDTLGPKFKKLADISLGKESYPDLDPSWPPQSTEPVCLPQETEPVVSGHPPISPHFGTTTVISESTYPSGPGVLHPKPILDPLGYGNVTVTESYTTSDTLKPSVHVHDNRPASNVVVTERVVGPISGADLHGMLEMPDLRDGSNVIVTERVIAPSSSLPTSLTIHHPRESSNVVVTERVIQPTSGMIGSLSMHPELANAHNVIVTERVVSGAGVTGISGTTGISGGIGSSGLVGTSMGAGSGALSGAGISGGGIGLSSLGGTASIGHMRSSSDHHFNQTIGSASPSTARSRITKYSTVQYSK
notes: Endogenous protein immunoprecipitated from detergent lysates of cultured human cells; also called Dsg1
